Measurements taken from patent US20040067991A1, “Tetrahydrobenzothiazole analogues as neuroprotective agents” (priority 2003, published 2004).
“Also recorded” adds a separate entry of the source. Structures can show the parent of a compound that is named as a salt.

How the values were obtained:
caspase activation = test: Caspase activation; type: cell-based
[1] = system: primary hippocampal neurons; test: Neuronal survival of primary hippocampal neurons after excitotoxic insult (glutamate); type: cell-based, rat
Experimental: (§1) Dissociated hippocampal cell cultures were established from embryonic day 18 Sprague-Dawley rats (Harlan, Inc.) as described previously. See Culmsee et al. (2001) J. Neurochem. 77:220-28. Cells were grown in polyethyleneimine-coated plastic dishes or 22 m^2 glass coverslips, and incubated in Neurobasal medium containing B27 supplements, 2 mM L-glutamine, 25 mg/ml gentamycin, 1 mM Hepes (Gibco BRL) and 0.001% gentamicin sulfate. All experiments were performed using 9-10 day-old cultures. Camptothecin and etoposide (Signia) were prepared as 500× stocks in DMSO. Neuron survival was quantified by established methods. See Mattson et al. (1993) Neuron 10:243-54. Briefly, viable neurons in premarked fields (10× objective) were counted before experimental treatment and at specified time points thereafter. Neurons with intact neurites of uniform diameter and soma with a smooth round appearance were considered viable. In contrast neurons with fragmented neurites and vacuolated soma were considered non-viable.
Primary hippocampal neurons were prepared and cultured as described above. Cultures were pretreated with compounds 14 and 1 (0.04 μM) 1 h before exposure to glutamate (20 μM) in Locke's medium. The percentage of neuronal survival 24 h after the onset of insult is given as mean values±SD.

rat hippocampal neurons = test: Neuronal survival assay in cultured hippocampal neurons treated with camptothecin or etoposide; type: cell-based
Experimental: 2-amino-4,5,6,7-tetrahydrobenzothiazole hydrogen and 1-(4-methylphenyl)-2-(4,5,6,7-tetrahydro-2-imino-3(2H)-benzothiazolyl)-ethanone hydrobromide and their analogues were assessed for their ability to protect rat hippocampal cells in culture from camptothecin ([…]).
as §1, with “See Culmsee et al. (2001) J. Neurochem.” left out, “See Mattson et al. (1993) Neuron 10:243-54.” left out

PC12 cells = test: Protection of PC12 cells against camptothecin-induced cell death (BCECF AM fluorescence); type: cell-based; details: read-out: PD50; concentration of compounds required to induce 50% protection (PC50) of PC12 cells from camptothecin-induced cell-death; 6 h preincubation with compound, camptothecin 40 μM for 24 h
Experimental: The 2-amino-4,5,6,7-tetrahydrobenzothiazole hydrogen iodide, 1-(4-methylphenyl)-2-(4,5,6,7-tetrahydro-2-imino-3(2H)-benzothiazolyl)-ethanone hydrobromide, and analogues were tested for their ability to protect PC12 cells against the toxic agent, camptothecin. PC12 cells were cultured in RPMI1640 media containing 10% horse serum and 5% fetal calf serum (37° C., pH 7.4) until confluent. Thereafter, 2.2×10^4 cells per mL were added to each trough of a 96 well plate (approximately 6,270 cells per well 285 μL) and were left to grow for 12 h. The media then was removed and was replaced by media with and without the compounds to be tested, including precursor, PFTα, and numerous analogues (concentration 100-400 nM, prepared in DMSO to a final dilution of 0.4%, 8 wells per concentration). Following 6 h of incubation, camptothecin (40 μM) was added to 4 of each 8 wells, and the cells were incubated for a further 24 h. Cells then were gently washed twice with phosphate buffered saline (PBS: 0.1 M, 37° C., pH 7.4) and were incubated in PBS containing the live-cell indicator dye, 2′,7′-bis(2-carboxyethey)-5-6-carboxyfluorescein AM ester (BCECF AM: 5 μM) (Molecular Probes, CA), for 45 min in minimal light. This fluorescent dye was taken up and retained by live cells. Finally, the cells were washed twice in PBS and their fluorescence then was quantified (excitation: 490 nm, emission: 535 nm, Perkin Elmer HTS 7000).
PC12 cell survival was also assessed. One hundred percent cell survival was determined from cells incubated in the absence of both any compound and camptothecin. […] Compound-induced toxicity was assessed by comparing cells treated with compound at various concentrations in the absence of camptothecin with cells incubated in the absence of both compound and camptothecin. […] Compound-induced cellular protection was assessed by comparing cells incubated with camptothecin with cells incubated with camptothecin in the presence of compound, in a concentration-dependent manner.

N=c1sc2c(n1Cc1ccccc1)CCCC2 [Compound 14, 3-(phenylmethyl)-4,5,6,7-tetrahydro-2(3H)-benzothiazolimine Hydrobromide]
caspase activation (in words) (caspase activation): suppress caspase activation | protection of hippocampal neurons against glutamate-induced death (in words) ([1]; 0.04 μM 1 h before glutamate (20 μM), survival at 24 h, Hydrobromide): protect; also recorded: at least partially reversed | neuron survival increased ([1]; neurons pretreated with compound, death induced by glutamate): 133% | neuroprotection of hippocampal neurons against camptothecin (in words) (rat hippocampal neurons; 100 nM, added 1 h before camptothecin 5 μM): significant neuroprotection | neuroprotection of hippocampal neurons against etoposide (in words) (rat hippocampal neurons; added 1 h before etoposide 2.5 μM): more active than compound PFTα | protection of primary hippocampal cells against death induced by camptothecin and etoposide (in words) (rat hippocampal neurons; camptothecin 5 μM, etoposide 2.5 μM, 24 h, Hydrobromide): had neuroprotection; also recorded: highly potency | neuronal survival (rat hippocampal neurons; pretreated with 100 nM of analogue, then camptothecin (5 μM), 24 h): 61% | EC50 (PC12 cells): 741 nM
